Data reported in publication PMC8911181, “A Novel CDK4/6 and PARP Dual Inhibitor ZC-22 Effectively Suppresses Tumor Growth and Improves the Response to Cisplatin Treatment in Breast and Ovarian Cancer” (International Journal of Molecular Sciences, 2022).

Tests used:
[1] = Body weight and histological analysis (H&E) of major organs, MDA-MB-231 tumor-bearing mice; format: in vivo; conditions: ZC-22 monotherapy 50 mg/kg ip
Protocol: To detect the safety of ZC-22 monotherapy or combination therapy, sections of mouse heart, liver, spleen, lung, and kidney tissues were stained with hematoxylin and eosin (H&E) and then analyzed by microscopy.
Figure S3. ZC-22 inhibits signaling of CDK4/6 and PARP in xenograft tumors of breast cancer. Female NOD-SCID mice were injected subcutaneously with 2×10^6 of MDA-MB-231 cells and treated ip daily with 50 mg/kg of Olaparib (OLA) or LY2835219 (LY-2) alone or together (OLA+LY-2), or ZC-22 starting on day 10 after injection of cells when tumors were 50–80 mm3 in size. Representative pictures of (A) and quantification of percentage of (B) phosphorylated Rb (p-Rb)-positive cells in immunohistochemical staining of the MDA-MB-231 xenograft tumor tissues. Values are means ± SEM, n = 6. ns, not significant, and *** p < 0.001 in the unpaired t-test. (C) Western blot analysis of p-Rb (Left) and PAR (Right) in the MDA-MB-231 xenograft tumor tissues with indicated treatment.
(D) Body weights of MDA-MB-231 tumor burden mice with indicated treatment. Values are means ± SD, n = 6. ns, not significant in unpaired t-test. (E) H&E staining of the heart, liver, spleen, lung, and kidney tissues of tumor-bearing mice treated with DMSO or ZC-22, showing the lack of toxicity of ZC-22 treatment.
Figure S4. ZC-22 increases the sensitivity of breast and ovarian cancer cells to cisplatin. […]

[2] = system: MDA-MB-231 xenograft tumors; assay: Breast cancer xenograft mouse model, tumor growth; format: in vivo, mice
Protocol: Six-week-old female athymic nude mice (Homozygous) were purchase from Vital River Laboratories (Beijing, China) and maintained under the guidelines for laboratory animals of Nankai university (NKU). Mice were injected subcutaneously with 2 × 10^6 MDA-MB-231 or 8 × 10^6 OVCAR5 cells. When tumors were 50–100 mm^3 in size, the mice were randomly grouped and treated intraperitoneal (i.p.) with 50 mg/kg of Olaparib, 50 mg/kg of LY2835219, 50 mg/kg of ZC-22, or 1.5 mg/kg of cisplatin alone or in combinations or with the vehicle (PBS containing 10% DMSO and 10% 2-hydroxy-propyl-β-cyclodextrin) every 2 days. Tumor volume was measured every 3–4 days, which was calculated as Length × Width^2/2. At the end of the study, tumor and major organ tissues were harvested by surgery. For histopathological analysis, tissue samples were washed with PBS, fixed in 4% paraformaldehyde (PFA), paraffin-embedded, and sectioned into 7 μm thickness. For Western blot analysis, the tissue samples were dissociated by a tissue-tearor in RIPA buffer containing 1×protease and phosphatase inhibitors.
Figure 4 ZC-22 suppresses growth of breast cancer xenografts. Female NOD-SCID mice were injected subcutaneously with 2 × 10^6 of MDA-MB-231 cells and treated ip daily with 50 mg/kg of Olaparib (OLA) or LY2835219 (LY-2) alone or together (OLA + LY-2) or with ZC-22 alone starting on day 10 after injection of cells when tumors were 50–80 mm^3 in size. Tumor volumes were measured every 2–3 days. […] (B,C) Pictures of (B) and quantification of the size of (C) the MDA-MB-231 xenograft tumors at the end points. […] (E) Quantification of Ki67 (Left) and γH2A.X (Right)-positive cells in immunohistochemical staining of the xenograft tumor tissues. […]
Figure 6 ZC-22 sensitizes breast cancer cells to cisplatin treatment in vivo. […] Tumor volumes were measured every 2–3 days. […] (B,C) Pictures (B) and quantification of the size (C) of the MDA-MB-231 xenograft tumors at the end points. […] (E) Quantification of Ki67 (left) and γH2A.X (right)-positive cells in immunohistochemical staining of the xenograft tumor tissues. […]

## Cc1nc2c(F)cc(-c3nc(Nc4ccc(N5CCN(C(=O)c6cc(Cc7n[nH]c(=O)c8ccccc78)ccc6F)CC5)cn4)ncc3F)cc2n1C(C)C [ZC-22, 4-(4-fluoro-3-(4-(6-((5-fluoro-4-(4-fluoro-1-isopropyl-2-methyl-1H-benzo[d]imidazole-6-yl)pyrimidin-2-yl)amino)pyridin-3-yl)piperazine-1-carbonyl)benzyl)phthalazin-1(2H)-one]
[1]
  toxicity (body weight, histology of major organs): no obvious toxicity
[2]; 1.5 mg/kg cisplatin or 50 mg/kg ZC-22 ip alone or together
  growth of the xenograft tumors: effectively inhibit growth of the xenograft tumors
[2]; 50 mg/kg ip, Olaparib and LY2835219 alone or together, or ZC-22
  anti-tumor efficacy (tumor growth): even higher therapeutic efficacy than combined Olaparib and Abemaciclib therapy
